In this assay the test system is KARN cells (Jurkat 2C4). Put plainly: KARN assay (luciferase induction). To be noted: ~20 hr, 100% induction = 2 μM SAHA. It is filed as cell-based. Here is the method:
KARN cells (Jurkat 2C4) were licensed from the laboratory of Dr. John Kam, Case Western Reserve University, School of Medicine. […] An atmosphere of 5% CO2 and 90% humidity was used for all culture work. Cells were split and reseeded into T175 flasks at a density of 0.2×10^6 cells/ml, in 40 ml of media, every 3-4 days.
Day 1: After the 3-4 day growth period, the cells were transferred from the T175 flask to a 50 ml conical tube and gently pelleted at 1000 rpm for 5 minutes. […] These flasks were returned to the incubator.
Day 2: Cell Preparation: The next day, the cells were transferred from each T175 flask to an individual 50 ml conical tube and gently pelleted at 1000 rpm for 5 minutes. The cells were gently resuspended in assay media (30 ml) and pelleted again. […] The cells were counted using the ViCell (Beckman Coulter, Brea, Calif.) and diluted as necessary. A Multidrop (Combi, Thermo Scientific, Waltham, Mass.) with a sterile head was used to seed the cells into the wells of a 384-well solid black plate with lid (Perkin Elmer, Waltham, Mass., catalog number 6007660) at 4000 cells/30 μl/well for the 5% NHS assay media and 6000 cells/30 μl/well for 0.1% NHS assay. The plates were covered and returned to the incubator prior to compound addition.
Compound Preparation: Solutions of control inhibitor suberoylanilide hydroxamic acid (SAHA; Sigma, catalog number SML0061) and test compounds in 100% DMSO were titrated into 384-well polypropylene plates (Labcyte, San Jose, Calif., catalog number P-05525) using a 20-point dose response and 2-fold dilutions. The reference compounds, DMSO and SAHA were then added to the compound plate. Using the Access system (Labcyte), 120 nl of these inhibitor and control solutions were added to the individual wells of the plates containing the cells, and the plates were then returned to the incubator for ˜20 hr (range from 18-24 hr). The final high concentration for SAHA and the test compounds in the assays was 40 μM. The final DMSO concentration in all wells was 0.4%. The minimal induction reference compound used was DMSO and the maximal induction reference compound used was SAHA (2 μM final concentration in the assay).
Day 3: The luciferase detection reagent was prepared by transferring the contents of one bottle of Steady-Glo buffer to one bottle of Steady-Glo substrate (Steady-Glo Luciferase Assay System, Promega, Madison, […]., catalog number E2520), followed by gently mixing until the substrate was thoroughly dissolved and the solution was equilibrated to room temperature. The cell culture assay plates were removed from the incubator and brought to room temperature (15 min). The Steady-Glo Reagent was added to the plates (30 μl/well), which were then covered with a black lid and incubated for 10 minutes at room temperature. The plates were then read for luminescence on an Envision (Perkin Elmer) using the ultrasensitive mode (US LUM), […] and 384-well aperture. Luminescence counts in the DMSO reference wells were considered as 0% induction, while those in the 2 μM SAHA reference wells were considered as 100% induction. Dose response curves were plotted as test compound concentration (X-axis) vs. percent activation (Y-axis) using a 4-parameter fit based on the Levenberg-Marquardt algorithm.

[1] abbreviates: Jurkat, read-out: Karn EC50 with 0.1% NHS, 0.1% normal human serum.
Setting [2] is: Jurkat, read-out: Karn EC50 with 5% NHS, 5% normal human serum.
Where [3] appears, read: read-out: Karn EC50 with 0.1% NHS, 0.1% normal human serum.
[4] abbreviates: read-out: Karn EC50 with 5% NHS, 5% normal human serum.

Where two headings read alike, the source gives them in different places.

The EC50 is the concentration that produces a half-maximal response. As to `CCC(=O)CCCCC[C@@H]1NC(=O)[C@H]2CC23CCN(CCCCCCCCn2ccc4cc(c(OC)cc4c2=O)-c2cnc1[nH]2)CC3` [Compound 5, (1^1S,4S)-6^7-methoxy-4-(6-oxooctyl)-6^1,6^2-dihydro-5^1H-3-aza-6(6,2)-isoquinolina-15(4,1)-piperidina-5(2,5)-imidazola-1(1,2)-cyclopropanapentadecaphane-6^1,2-dione], the EC50 reads like this: under setting [1], 0.011 µM; under setting [2], 0.012 µM.

For the compound `CCC(=O)CCCCCC1NC(=O)C2CC2N2CCC(CCCCCn3c(=O)ccc4cc(ccc43)-c3cnc1o3)CC2` [Compound 7, (11S,4S)-4-(6-oxooctyl)-61,62-dihydro-3-aza-5(2,5)-oxazola-6(6,1)-quinolina-12(4,1)-piperidina-1(1,2)-cyclopropanadodecaphane-62,2-dione], the EC50 stood at 5.15 µM under setting [3] and 4.73 µM under setting [4].

In the case of `CCC(=O)CCCCC[C@@H]1NC(=O)[C@H]2CC23CCN(CCCOCCCn2ccc4cc(ccc4c2=O)-c2cnc1[nH]2)CC3` [Compound 12, (3S,6S)-6-(6-oxooctyl)-22-oxa-5,8,18,26,33-pentaazahexacyclo[24.2.2.1˜7,10˜0.1˜11,15˜0.1˜14,18˜0.0˜1,3˜]tritriaconta-7,9,11(32),12,14,16-hexaene-4,31-dione], the EC50 runs as follows: under setting [1], 1.79 µM; under setting [2], 1.99 µM.

As to `CCC(=O)CCCCC[C@H](NC(=O)[C@H]1CC12CCN(CC)CC2)c1[nH]c2nc1C(=O)NCCC/C=C/c1cccc-2c1` [Compound 15, (1S)-6-ethyl-N-{(1S)-7-oxo-1-[(11E)-6-oxo-3,7,18-triazatricyclo[11.3.1.1~2,5~]octadeca-1(17),2(18),4,11,13,15-hexaen-4-yl]nonyl}-6-azaspiro[2.5]octane-1-carboxamide], the concentration giving a half-maximal response (EC50) under setting [1] turned out to be 5.24 µM and the EC50 under setting [2] was determined as 19.3 µM.

Consider “(11S,4S)-4-(6-oxooctyl)-61,62-dihydro-3-aza-5(2,5)-oxazola-6(6,1)-quinolina-12(4,1)-piperidina-1(1,2)-cyclopropanadodecaphane-62,2-dione [Compound 8]”, for which the EC50 reads like this: under setting [3], greater than 40 µM; under setting [4], greater than 40 µM.

Source of the values: patent US11976069B2, “Inhibitors of histone deacetylase useful for the treatment or prevention of HIV infection” (Merck Sharp & Dohme LLC, priority 2019, dated 2024).
